# Results from the NIST ThermoML archive (doi:10.1021/je800925v).
# Numbers after ± are expanded uncertainties.
# Tests used:
# [1] = xn = mol fraction of the nth substance listed; conditions: Liquid, x1 = 1
# [2] = Liquid
mass density ([1]; 293.15 K) [kg/m3],mass density ([1]; 298.15 K) [kg/m3],mass density ([2]; 293.15 K) [kg/m3],viscosity ([2]; 293.15 K) [mPa·s],mass density ([2]; 298.15 K) [kg/m3],viscosity ([2]; 298.15 K) [mPa·s],viscosity ([1]; 293.15 K) [mPa·s],viscosity ([1]; 298.15 K) [mPa·s],Structure (SMILES)
790.2 ± 7.5,785.9 ± 7.6,,,,,,,CCO [ethanol] + CCCCCCCC
,,705.6 ± 9.5,0.5374 ± 0.023,701.6 ± 9.6,0.5087 ± 0.022,,,CCCCCCCC [octane]
,,659.8 ± 2.8,0.2979 ± 0.038,655.3 ± 2.8,0.2865 ± 0.038,,,CCCCCC [hexane]
,,790.2 ± 2.2,1.21 ± 0.062,785.9 ± 2.2,1.099 ± 0.059,,,CCO [ethanol]
790.2 ± 2.2,785.9 ± 2.2,,,,,1.21 ± 0.062,1.099 ± 0.059,CCO [ethanol] + CCCCCC
,,731 ± 2.4,0.9133 ± 0.028,727.2 ± 2.4,0.8509 ± 0.027,,,CCCCCCCCCC [decane]
